Paper PMC7093416, “Selective USP7 inhibition elicits cancer cell killing through a p53-dependent mechanism” (Scientific Reports, 2020)

Key:
USP7 = USP7 (Homo sapiens, UniProt Q93009); test: XL177A-DTB chemoproteomic profiling with XL177A competition, USP7; type: binding; parameters: endogenous in cells; host or cells: HEK 293AD lysate
Procedure: (§1) HEK 293AD cells were lysed as described above, and the lysate was cleared by centrifugation. […] SDS was added to a final concentration of 1.2% (27.2 μL of a 10% stock), and denatured by heating to 80 °C for 5 minutes. After cooling to RT, 1125 μL 1X PBS was added to dilute the final SDS concentration to 0.2%. 50 μL streptavidin agarose slurry was added to each sample, followed by incubation at RT for 3 hours. After streptavidin enrichment, samples were washed vigorously (2×0.2% SDS, 3x PBS, 3x ddH2O). After the final wash, all supernatant was removed using a flat-bottom tip, and the resin was flash frozen and stored at −80 °C until workup for TMT labeling.
(§2) To remove rapigest, recovered supernatants were acidified with 10% TFA, incubated at 37 °C for 45 minutes, and centrifuged at 14,000 rpm for 15 minutes at 4 °C. Peptides were then desalted by C18, and dried by vacuum centrifugation. Dried peptides were reconstituted in 50 mM pH8.0 TEAB and labeled with TMT reagent at RT for 1 hour. TMT reactions were pooled and treated with hydroxylamine according to the manufacturer’s instructions. Peptide mixtures were then dried, reconstituted in 50 mM ammonium bicarbonate and desalted by SP3[53]. Eluted peptides were then analyzed by nanoflow LC-MS/MS as described[64] with a NanoAcquity UPLC system (Waters, Milford, MA) interfaced to a QExactive HF mass spectrometer (Thermofisher Scientific, San Jose, CA). TMT labeled peptides were injected onto a precolumn (4 cm POROS 10R2, Applied Biosystems, Framingham, MA), resolved on an analytical column (30 µm I.D. × 50 cm packed with 5 µm Monitor C18) and introduced to the mass spectrometer by ESI (spray voltage = 3.5 kV, flow rate ~30 nL/min). The mass spectrometer was operated in data dependent mode such that the 15 most abundant ions in each MS scan (m/z 300–2000, 120 K resolution, target = 3E6, lock mass for 445.120025 enabled) were subjected to MS/MS (m/z 100–2000, 30 K resolution, target = 1E5, max fill time = 100 ms). Dynamic exclusion was selected with a repeat count of 1 and an exclusion time of 30 seconds. MS/MS data was extracted to.mgf using mulitplierz scripts[54],[55] and searched against a forward-reverse human NCBI refseq database using Mascot version 2.6. Search parameters specified fixed carbamidomethylation of cysteine, fixed N-terminal and lysine TMT labelling, and variable oxidation (methionine). Additional multiplierz scripts were used to filter results to 1% FDR and derive protein-level aggregate reporter ion intensities using peptides mapping uniquely into the genome.

USP7-F291N = target: T1, USP7-F291N (Homo sapiens, UniProt Q93009, F291N); test: Ub-AMC enzymatic assay, USP7-F291N mutant; type: biochemical; settings: 6-hr pre-incubation
T1 construct: made in house

BZW2 = target: T2, BZW2 (Homo sapiens, UniProt Q9Y6E2); test: XL177A-DTB chemoproteomic profiling with XL177A competition, BZW2; type: binding; settings: BZW2 reporter ion intensity
T2 construct: endogenous in cells; host or cells: HEK 293AD lysate
T2 sequence (Q9Y6E2 1-419): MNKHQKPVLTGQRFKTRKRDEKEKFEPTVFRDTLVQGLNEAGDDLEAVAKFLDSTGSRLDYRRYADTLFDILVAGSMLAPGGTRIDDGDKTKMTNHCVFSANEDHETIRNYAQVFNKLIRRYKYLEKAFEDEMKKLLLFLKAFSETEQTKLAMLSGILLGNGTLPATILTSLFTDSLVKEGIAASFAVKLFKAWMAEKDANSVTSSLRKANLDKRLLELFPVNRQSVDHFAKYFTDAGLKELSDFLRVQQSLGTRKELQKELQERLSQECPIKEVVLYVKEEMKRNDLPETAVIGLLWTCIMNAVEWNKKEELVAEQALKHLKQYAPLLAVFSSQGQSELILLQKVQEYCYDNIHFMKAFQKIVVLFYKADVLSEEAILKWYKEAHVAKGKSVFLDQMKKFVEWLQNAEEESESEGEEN
Procedure: as §1, §2

[1] = USP7 reporter ion intensity, XL177A-DTB pulldown, HEK293AD lysate pre-treated 100nM XL177A
[2] = USP7 reporter ion intensity, XL177A-DTB pulldown, HEK293AD lysate pre-treated 1uM XL177A
[3] = USP7 reporter ion intensity, XL177A-DTB pulldown, HEK293AD lysate pre-treated 10uM XL177A
[4] = USP7 reporter ion intensity, average of Run 1 and Run 2, 100nM XL177A
[5] = USP7 reporter ion intensity, average of Run 1 and Run 2, 1uM XL177A
[6] = USP7 reporter ion intensity, average of Run 1 and Run 2, 10uM XL177A
[7] = XL177A-DTB pulldown, HEK293AD lysate pre-treated 100nM XL177A
[8] = XL177A-DTB pulldown, HEK293AD lysate pre-treated 1uM XL177A
[9] = XL177A-DTB pulldown, HEK293AD lysate pre-treated 10uM XL177A
[10] = average of Run 1 and Run 2, 100nM XL177A
[11] = average of Run 1 and Run 2, 1uM XL177A
[12] = average of Run 1 and Run 2, 10uM XL177A

Sequence of USP7 (Q93009 whole entry): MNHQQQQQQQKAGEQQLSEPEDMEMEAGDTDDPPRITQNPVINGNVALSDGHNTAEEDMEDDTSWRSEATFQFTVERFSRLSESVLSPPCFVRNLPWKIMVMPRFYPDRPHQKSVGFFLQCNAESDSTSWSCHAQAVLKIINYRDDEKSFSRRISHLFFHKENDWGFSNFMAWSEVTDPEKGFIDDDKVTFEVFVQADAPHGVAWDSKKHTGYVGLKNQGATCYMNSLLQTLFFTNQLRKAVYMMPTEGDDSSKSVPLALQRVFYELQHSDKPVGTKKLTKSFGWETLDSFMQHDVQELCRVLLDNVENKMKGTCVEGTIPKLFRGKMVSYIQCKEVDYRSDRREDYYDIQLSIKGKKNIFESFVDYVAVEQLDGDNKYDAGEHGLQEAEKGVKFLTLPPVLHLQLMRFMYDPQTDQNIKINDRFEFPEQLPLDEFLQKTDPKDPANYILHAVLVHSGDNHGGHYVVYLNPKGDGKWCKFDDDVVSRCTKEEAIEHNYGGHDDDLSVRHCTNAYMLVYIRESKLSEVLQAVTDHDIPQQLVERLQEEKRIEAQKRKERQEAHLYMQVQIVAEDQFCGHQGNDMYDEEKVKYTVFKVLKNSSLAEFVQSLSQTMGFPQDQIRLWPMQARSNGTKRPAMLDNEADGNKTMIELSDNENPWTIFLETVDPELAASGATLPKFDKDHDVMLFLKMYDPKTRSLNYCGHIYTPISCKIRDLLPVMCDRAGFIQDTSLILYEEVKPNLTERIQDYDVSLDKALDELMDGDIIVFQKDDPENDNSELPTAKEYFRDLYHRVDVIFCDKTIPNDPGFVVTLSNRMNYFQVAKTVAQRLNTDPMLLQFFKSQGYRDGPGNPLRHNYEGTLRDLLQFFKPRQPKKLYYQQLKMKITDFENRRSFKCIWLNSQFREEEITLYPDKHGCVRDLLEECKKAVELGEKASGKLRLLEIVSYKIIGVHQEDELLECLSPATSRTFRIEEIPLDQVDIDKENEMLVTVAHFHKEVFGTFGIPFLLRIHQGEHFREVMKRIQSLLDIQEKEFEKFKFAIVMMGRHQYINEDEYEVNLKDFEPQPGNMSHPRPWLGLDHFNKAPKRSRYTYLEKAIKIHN
T1 sequence (Q93009 whole entry F291N): as the sequence (Q93009 whole entry) above, with F291N counted along it

`CN1CCN(CCC(=O)Nc2ccc3c(=O)n(CC4(O)CCN(C(=O)[C@@H](CCCNC(=O)c5ccc6c(Cl)c7c(nc6c5)CCCC7)Cc5ccccc5)CC4)cnc3c2)CC1` [XL177A] was tested, and the “inhibition of XL177A-DTB labeling” value (USP7; HEK293 lysate, XL177A 1 or 10 μM, 5 hours, only USP7 of 566 proteins) was greater than 3 fold, the “Run 1 100nM 1” value (USP7; [1]) was 31732106 and the “Run 1 100nM 2” value (USP7; [1]) was 30184262. For the same compound, the “Run 1 100nM 3” value (USP7; [1]) was 32232481, the “Run 2 100nM 1” value (USP7; [1]) was 31803721 and the “Run 2 100nM 2” value (USP7; [1]) was 30185364. For the same compound, the “Run 2 100nM 3” value (USP7; [1]) was 32073312, the “Run 1 1uM 1” value (USP7; [2]) was 8663971 and the “Run 1 1uM 2” value (USP7; [2]) was 7593596. For the same compound, the “Run 1 1uM 3” value (USP7; [2]) was 8340895, the “Run 2 1uM 1” value (USP7; [2]) was 8601953 and the “Run 2 1uM 2” value (USP7; [2]) was 7625246. For the same compound, the “Run 2 1uM 3” value (USP7; [2]) was 8414168, the “Run 1 10uM 1” value (USP7; [3]) was 7727617 and the “Run 1 10uM 2” value (USP7; [3]) was 7625585. For the same compound, the “Run 2 10uM 1” value (USP7; [3]) was 7739438, the “Run 2 10uM 2” value (USP7; [3]) was 7761626 and the “AVE 100nM 1” value (USP7; [4]) was 31767914. For the same compound, the “AVE 100nM 2” value (USP7; [4]) was 30184813, the “AVE 100nM 3” value (USP7; [4]) was 32152896 and the “AVE 1uM 1” value (USP7; [5]) was 8632962. For the same compound, the “AVE 1uM 2” value (USP7; [5]) was 7609421, the “AVE 1uM 3” value (USP7; [5]) was 8377532 and the “AVE 10uM 1” value (USP7; [6]) was 7733528. For the same compound, the “AVE 10uM 2” value (USP7; [6]) was 7693606, the IC50 (USP7-F291N) was 629 nM and the “Run 1 100nM 1” value (BZW2; [7]) was 6095061. The “Run 1 100nM 2” value (BZW2; [7]) was 5618739, the “Run 1 100nM 3” value (BZW2; [7]) was 5891848 and the “Run 2 100nM 1” value (BZW2; [7]) was 6367486. The “Run 2 100nM 2” value (BZW2; [7]) was 5770311, the “Run 2 100nM 3” value (BZW2; [7]) was 6244557 and the “Run 1 1uM 1” value (BZW2; [8]) was 5512643. The “Run 1 1uM 2” value (BZW2; [8]) was 3810437, the “Run 1 1uM 3” value (BZW2; [8]) was 5451627 and the “Run 2 1uM 1” value (BZW2; [8]) was 5833621. For the same compound, the “Run 2 1uM 2” value (BZW2; [8]) was 3936167, the “Run 2 1uM 3” value (BZW2; [8]) was 5735390 and the “Run 1 10uM 1” value (BZW2; [9]) was 4021260. For the same compound, the “Run 1 10uM 2” value (BZW2; [9]) was 4066194, the “Run 2 10uM 1” value (BZW2; [9]) was 4140296 and the “Run 2 10uM 2” value (BZW2; [9]) was 4394498. The “AVE 100nM 1” value (BZW2; [10]) was 6231274, the “AVE 100nM 2” value (BZW2; [10]) was 5694525 and the “AVE 100nM 3” value (BZW2; [10]) was 6068202. The “AVE 1uM 1” value (BZW2; [11]) was 5673132, the “AVE 1uM 2” value (BZW2; [11]) was 3873302 and the “AVE 1uM 3” value (BZW2; [11]) was 5593508. The “AVE 10uM 1” value (BZW2; [12]) was 4080778 and the “AVE 10uM 2” value (BZW2; [12]) was 4230346.
